Measured values as given in patent publication US20050032873A1, “3-Amino chroman and 2-amino tetralin derivatives” (Wyeth, priority 2003, published 2005).
Read-outs that look alike come from different tables or passages of the source.

Experiments:
serotonin transporter = target: T1, serotonin transporter (Rattus norvegicus, UniProt P31652); assay: 5-HT transporter affinity: displacement of 3H-paroxetine from male rat cortical membranes; assay type: binding; settings: displacement of 3H-paroxetine, male rat cortical membranes
T1 construct: displace ^3H-paroxetine from male rat cortical membranes; from tissue; host or cells: male rat cortical membranes

5-HT1A receptor = target: T2, 5-HT1A receptor (Homo sapiens, UniProt P08908); assay: 5-HT1A receptor affinity: displacement of [3H] 8-OH-DPAT; assay type: binding; set-up: expressed in transfected cells; settings: for Ki: displacement of [3H] 8-OH-DPAT, CHO cells stably transfected with human 5-HT1A receptors, read-out: 5-HT1A Receptor Affinity Ki; for inhibition at 1 µM: read-out: 5-HT1A Receptor Affinity, % @ 1 μM
T2 sequence (P08908 1-422): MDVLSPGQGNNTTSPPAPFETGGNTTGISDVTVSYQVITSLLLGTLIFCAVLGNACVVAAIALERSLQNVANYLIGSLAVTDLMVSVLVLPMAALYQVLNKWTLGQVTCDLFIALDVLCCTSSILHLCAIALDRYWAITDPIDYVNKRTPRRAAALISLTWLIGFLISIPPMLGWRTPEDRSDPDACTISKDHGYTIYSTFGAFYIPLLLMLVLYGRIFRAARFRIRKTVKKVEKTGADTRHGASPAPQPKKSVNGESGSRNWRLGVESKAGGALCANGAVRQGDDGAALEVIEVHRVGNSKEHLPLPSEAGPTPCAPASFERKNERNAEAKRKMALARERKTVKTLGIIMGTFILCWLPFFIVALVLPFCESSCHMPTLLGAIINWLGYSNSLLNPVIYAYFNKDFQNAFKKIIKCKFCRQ

[1] = target: T3, cloned human 5-HT1A receptors (Homo sapiens, UniProt P08908); assay: 35S-GTPγS binding assay, 5-HT1A function; assay type: biochemical; settings: for IC50: antagonist potency, reversal of 8-OH-DPAT, read-out: 5-HT1A Function GTPγS IC50; for EC50: agonist potency
T3 construct: expressed in transfected cells
T3 sequence (P08908 1-422): T2 sequence (P08908 1-422)
Text: The agonist or antagonist activity at 5-HT1A receptors was established by using two different assays. […] Agonists produce an increase in binding whereas antagonists produce no increase but rather reverse the effects of the standard agonist 8-OH-DPAT. The test compound's maximum stimulatory effect is represented as the Emax, while its potency is defined by the EC50. The test compound's maximum inhibitory effect is represented as the Imax, while its potency is defined by the IC50. The second assay measured cAMP accumulation upon binding of the ligand to the 5-HT1A receptor. […] The test compound's maximum stimulatory or inhibitory effect is represented as the Emax while its potency is defined by either IC50 for an antagonist or EC50 for an agonist. [^3H]-8-OH-DPAT was used to determine maximum agonist or antagonist response in both functional assays.

[2] = read-out: 5-HT Transporter Affinity Ki
[3] = maximum stimulatory effect, in brackets after EC50, read-out: 5-HT1A Function GTPγS (Emax)
[4] = maximum inhibitory effect, in brackets after IC50, read-out: 5-HT1A Function GTPγS (Imax)

T1 sequence (P31652 whole entry): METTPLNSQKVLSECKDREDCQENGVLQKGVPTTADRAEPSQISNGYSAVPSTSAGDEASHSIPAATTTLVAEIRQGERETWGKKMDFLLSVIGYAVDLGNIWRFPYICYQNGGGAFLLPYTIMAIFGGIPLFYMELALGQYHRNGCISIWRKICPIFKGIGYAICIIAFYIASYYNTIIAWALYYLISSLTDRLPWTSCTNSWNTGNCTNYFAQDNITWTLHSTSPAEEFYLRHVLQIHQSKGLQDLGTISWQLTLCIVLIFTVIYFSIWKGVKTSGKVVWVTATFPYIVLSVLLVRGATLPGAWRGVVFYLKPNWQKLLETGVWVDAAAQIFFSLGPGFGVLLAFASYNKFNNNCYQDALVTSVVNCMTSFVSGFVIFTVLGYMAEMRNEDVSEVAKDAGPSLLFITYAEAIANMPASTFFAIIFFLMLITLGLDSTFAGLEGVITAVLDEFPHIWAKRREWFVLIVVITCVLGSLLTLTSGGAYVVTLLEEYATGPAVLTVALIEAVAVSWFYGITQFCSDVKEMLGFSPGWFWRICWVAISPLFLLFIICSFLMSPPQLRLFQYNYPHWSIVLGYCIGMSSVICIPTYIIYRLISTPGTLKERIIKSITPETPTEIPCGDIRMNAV

Row | Structure (SMILES) | Ki (serotonin transporter; [2]) [nM] | Ki (5-HT1A receptor) [nM] | IC50 [1] [nM] | 5-HT1A Function GTPγS (Imax) ([1]; maximum inhibitory effect, in brackets after IC50) [%] | EC50 [1] [nM] | Emax [1, 3] [%] | Emax [1, 4] [%] | Ki (serotonin transporter; 5-HT Transporter Affinity Ki (nM)) [nM] | inhibition at 1 µM (5-HT1A receptor) [%]
1 | CC(CCc1c[nH]c2c(F)cc(F)cc12)N(CC1CC1)C1COc2c(F)ccc(C(N)=O)c2C1 (single isomer, unassigned) [Compound 154a, 3-{(cyclopropylmethyl)[3-(5,7-difluoro-1H-indol-3-yl)-1-methylpropyl]amino}-8-fluorochromane-5-carboxamide] | 65 | 6.35 | 235 | 100 | – | – | – | – | –
2 | CCN(CCCc1c[nH]c2ccc(F)cc12)C1COc2c(F)ccc(C(=O)NC)c2C1 (centres unmarked) [Compound 89, 3-{ethyl[3-(5-fluoro-1H-indol-3-yl)propyl]amino}-8-fluoro-N-methylchromane-5-carboxamide] | 1.08 | 21.2 | – | – | 110 | 62 | – | – | –
3 | NC(=O)c1ccc(F)c2c1CC(N(CCCCn1ccc3cccc(F)c31)CC1CC1)CO2 (centres unmarked) [Compound 191, 3-{(Cyclopropylmethyl)[4-(7-fluoro-1H-indol-1-yl)butyl]amino}-8-fluorochromane-5-carboxamide] | 38.7 | 19.3 | 204 | – | – | – | 74 | – | –
4 | CCN(CCc1c[nH]c2ccc(F)cc12)C1COc2c(F)ccc(C(=O)NC)c2C1 (centres unmarked) [Compound 85, 3-{ethyl[2-(5-fluoro-1H-indol-3-yl)ethyl]amino}-8-fluoro-N-methylchromane-5-carboxamide] | – | – | 3580 | – | – | – | 72 | 35.4 | 46
5 | CC(C)NC(=O)c1cccc2c1CC(N(CCCc1c[nH]c3c(F)cc(F)cc13)C1CCC1)CO2 (centres unmarked) [Compound 141, 3-{cyclobutyl[3-(5,7-difluoro-1H-indol-3-yl)propyl]amino}-N-isopropylchromane-5-carboxamide] | 3.52 | 7.69 | – | – | 287 | 99 | – | – | –
6 | O=C(NC1CCCCC1)c1ccc(F)c2c1CC(N(CCCc1c[nH]c3ccc(F)cc13)C1CCC1)CO2 (centres unmarked) [Compound 67, 3-{cyclobutyl[3-(5-fluoro-1H-indol-3-yl)propyl]amino}-N-cyclohexyl-8-fluorochromane-5-carboxamide] | 19.8 | – | 1970 | – | – | – | 76 | – | 44
7 | O=C(NCC1CC1)c1ccc(F)c2c1CC(N(CCCc1c[nH]c3ccc(F)cc13)C1CCC1)CO2 (centres unmarked) [Compound 68, 3-{cyclobutyl[3-(5-fluoro-1H-indol-3-yl)propyl]amino}-N-(cyclopropylmethyl)-8-fluorochromane-5-carboxamide] | 4.4 | 161 | 1300 | – | – | – | 50 | – | –
8 | NC(=O)c1ccc(F)c2c1CC(NCCCCc1c[nH]c3ccc(F)cc13)CO2 (centres unmarked) [Compound 79, 8-fluoro-3-{[4-(5-fluoro-1H-indol-3-yl)butyl]amino}chromane-5-carboxamide] | 4.46 | – | 2660 | – | – | – | 63 | – | 43
9 | O=C(NC1CCCC1)c1ccc(F)c2c1CC(N(CCCc1c[nH]c3ccc(F)cc13)C1CCC1)CO2 (centres unmarked) [Compound 66, 3-{cyclobutyl[3-(5-fluoro-1H-indol-3-yl)propyl]amino}-N-cyclopentyl-8-fluorochromane-5-carboxamide] | 5.65 | – | – | – | 7500 | 38 | – | – | 41
10 | CCCCNC(=O)c1ccc(F)c2c1CC(N(CCCc1c[nH]c3ccc(F)cc13)C1CCC1)CO2 (centres unmarked) [Compound 62, N-butyl-3-{cyclobutyl[3-(5-fluoro-1H-indol-3-yl)propyl]amino}-8-fluorochromane-5-carboxamide] | 4.55 | – | 1900 | – | – | – | 50 | – | 40
11 | NC(=O)c1ccc(F)c2c1CC(NCCc1c[nH]c3ccc(F)cc13)CO2 (centres unmarked) [Compound 75, 8-fluoro-3-{[2-(5-fluoro-1H-indol-3-yl)ethyl]amino}chromane-5-carboxamide] | 1030 | – | 2150 | – | – | – | 40 | – | 0
